Where two headings read alike, the source gives them in different places.

As a reminder, the viability is a per cent measure of how many cells are alive, often set against a control. Low values mean a greater loss of cells, high ones better survival.

A short description of data set [1]: in vitro. Conditions: dog.
The subject of data set [2] is influenza A/Puerto Rico/8/34 (H1N1). Format: in vivo, BALB/c mice.
In data set [3] the test system is herpes simplex type 1 (HSV-1) virus. Conditions: cited from earlier work.
Data set [4] concerns polio virus. To be noted: cited from earlier work.
For data set [5], the system named is vesicular stomatitis virus (VSV). Conditions: cited from earlier work.
Data set [6] relates to influenza A virus strain (PR8). Conditions: cited from earlier work.
The nature of data set [7]: in vitro. Conditions: human.
The subject of data set [8] is alpha coronavirus 229E (HCoV-229E). The experiment in a line: inhibition of virus-induced CPE, CoV229E in MRC-5 cells (XTT). The data set is classed as cell-based. As for the experimental part:
The antiviral compound Remdesivir served as positive control.
Lefamulin (as acetate) was evaluated using different treatment conditions of 4 h, 1 h or 0 h incubation prior to virus addition and addition 1 h after infection For this particular set of experiments, coronavirus was diluted 1:200 in assay medium and added at 100 μL/well to achieve approximately 90% cell killing in the untreated virus control wells (MOI of 0.001).
On the technique in general: Tetrazolium dyes change colour on reduction, which living cells bring about.

Data set [9] has as its system human rhinovirus strain HRV16 strain 11757. The data set can be described thus: inhibition of virus-induced CPE, human rhinovirus in H1-HeLa cells. Format: cell-based. To be noted: Human rhinovirus sp., 4 hour pretreatment. The protocol: Cell viability determination as well as EC50 and TC50 calculations were performed as described in Examples 6 and 8.
Data set [10] in a line: in vitro. To be noted: human. The source holds these as a separate data set.
The test system of data set [11] is mice challenged with lipopolysaccharide (LPS). The data set can be described thus: modified LPS induced lung neutrophilia model, BALF cell counts 24 h post LPS (Example 4).
Data set [12] in a line: cell viability of uninfected Huh7 cells. To be noted: human, TC50, Example 13 (Zika assay).
Data set [13] deals with respiratory syncytial virus (RSV ALONG). The data set can be described thus: inhibition of virus-induced CPE, RSV ALONG in HEp2 cells. To be noted: Example 10; investigated strain of RSV A.
Data set [14] deals with human respiratory syncytial virus (strain RSVA2). The data set can be described thus: inhibition of virus-induced CPE, RSVA2 in HEp2 cells (XTT).
The subject of data set [15] is respiratory syncytial virus (RSV B18537). The experiment in a line: inhibition of virus-induced CPE, RSV B18537 in HEp2 cells. Conditions: Example 10; investigated strain of RSV B.
Data set [16] has as its system MRC-5 cells. Conditions: Example 6.
The nature of data set [17]: in vitro. Conditions: human, TC50.
Data set [18] relates to human respiratory syncytial virus (strain RSVA2). Conditions: Example 8.
Data set [19] deals with HEp2 cells. The experiment in a line: cell viability of uninfected HEp2 cells (XTT). Conditions: Example 8.

Turning to `CCOC(=O)C1=C[C@@H](OC(CC)CC)[C@H](NC(C)=O)[C@@H](N)C1` [Oseltamivir, reference compound], in [1], the CC50 is > 200000 nM. In addition, in data set [2] (Lefamulin at both doses, Oseltamivir positive control, Day 3 and Day 6, vs vehicle treated control), the “lung viral titres (TCID50 on MDCK cells)” value is listed as “reduced”. In data set [2] (positive control treatment), the bodyweight loss result was “reduction” and the clinical scores result was “reduction”.
Regarding `C=C[C@]1(C)C[C@@H](OC(=O)CO)[C@]2(C)[C@H](C)CC[C@]3(CCC(=O)[C@H]32)[C@@H](C)[C@@H]1O` [Pleuromutilin], the “concentration that conferred a 50% protection of the cytopathic effect induced by HSV-1 (CPE50)” value in [3] is 15 µg/mL. The EC50 in data set [3] (read-out: concentration that conferred a 50% protection of the cytopathic effect induced by HSV-1 (CPE50)) is 40000 nM. Further, the “antiviral activity for polio virus” value in data set [4] is “did not show antiviral activity”. Also, the “activity against vesicular stomatitis virus (VSV)” value in [5] was “activity”. Besides, the “concentration with antiviral activity” value in [6] is 2 mg/mL.
For `CCC(CC)COC(=O)[C@H](C)N[P@](=O)(OC[C@H]1O[C@@](C#N)(c2ccc3c(N)ncnn23)[C@H](O)[C@@H]1O)Oc1ccccc1` [Remdesivir, reference compound], in data set [7], the CC50 was > 5000 nM. Moreover, the EC50 in data set [8] (Human coronavirus 229E, MRC5) was found to be 110 nM.
For `CCOC(=O)/C=C/[C@H](C[C@@H]1CCNC1=O)NC(=O)[C@@H](CC(=O)[C@@H](NC(=O)c1cc(C)on1)C(C)C)Cc1ccc(F)cc1` [Rupintrivir], the EC50 in data set [9] amounted to 4.9 nM; in [9] (MOI 0.0005, Lefamulin as acetate), 4.9 nM. Further, in data set [10], the CC50 is > 100 nM.
`C=C(CC(=O)[O-])C(=O)[O-].[Na+].[Na+]` [Sodium itaconate, reference compound]: the BALF cell counts entry in data set [11] (55 mg/kg single SC dose 30 min prior to IN LPS) was “some reduction”.
On to `CC(C)OC(=O)[C@H](C)N[P@](=O)(OC[C@H]1O[C@@H](n2ccc(=O)[nH]c2=O)[C@](C)(F)[C@@H]1O)Oc1ccccc1` [Sofosbuvir, reference compound], for which the CC50 at 6 days in [12] is > 10000 nM.
On to `Cc1ccc(CCCO)c(NCc2ccc3nc(NCCCN4CCOCC4)n(Cc4nc(C)ccc4O)c3c2)c1` [TMC353121], for which the EC50 in [13] amounted to 0.01 nM; in [14] (Example 8, HEp2 cells, 4 h incubation prior to virus, MOI 0.001, 6 days post-infection, Lefamulin as acetate, Tiamulin as fumarate) it was 0.6 nM; in data set [14] (Example 9, MOI 0.0004), 0.04 nM; in data set [14] (Example 9, MOI 0.0008), 0.3 nM; in data set [14] (Example 9, MOI 0.001), 0.2 nM; in data set [14] (Example 9, MOI 0.003) it was 0.2 nM. In addition, the EC50 in [15] amounted to 0.01 nM.
As to `C=C[C@]1(C)C[C@@H](OC(=O)CSCCN(CC)CC)[C@]2(C)[C@H](C)CC[C@]3(CCC(=O)[C@H]32)[C@@H](C)[C@@H]1O` [Tiamulin, reference compound], the “cytotoxic effect on the viability of the cell control” value in [16] (10 μM) is on record as “no cytotoxic effect”; in data set [16] (50 μM), “cytotoxic effect”. The CC50 at 6 days in data set [17] was found to be 67900 nM; in data set [7], 62900 nM. For the same compound, the “reduction of viral CPE” value in data set [18] (10 μM) was 16.76%; in data set [18] (50 μM), 43.28%; in [8] (10 µM), 10.53%; in data set [8] (50 μM), 81.68%. The EC50 in data set [14] (human respiratory syncytial virus, HEp-2, Example 8, HEp2 cells, 4 h incubation prior to virus, MOI 0.001, 6 days post-infection, Lefamulin as acetate, Tiamulin as fumarate) is > 67900 nM; in data set [8] (Example 6, MRC-5 cells, 4 h incubation prior to virus, MOI 0.001, 6 days post-infection, Lefamulin as acetate, Tiamulin as fumarate, read-out: EC50), 24400 nM. Moreover, the viability in [19] (10 μM) is reported as 84%; in [19] (50 μM), 70.0%.
Lefamulin acetate: in data set [11] (70 mg/kg single SC dose 30 min prior to IN LPS), the “cell count in BALF” value is listed as “reduction”.

The values above are taken from patent US20230174472A1, “THERAPEUTIC USE OF PLEUROMUTILINS” (priority 2020, published 2023).
